Patent publication US20240076667A1, “APPLICATION OF ANTISENSE OLIGONUCLEOTIDE TARGETING PBX1 PROMOTER REGION G-QUADRUPLEX IN PREPARATION OF MEDICINE FOR TREATING MELANOMA” (JILIN UNIVERSITY, priority 2022, published 2024)
“Also recorded” adds a separate entry of the source.

Columns and labels:
[1] = system: B16-F10 cells; experiment: Cell proliferation assay (CCK-8), B16-F10; format: cell-based, mouse; conditions: dose-dependent manner
Experimental: (§1) Cell proliferation assay: cell viability is determined by the cell counting kit-8 (CCK-8) according to the manufacturer's instructions (Abcam, UK). Cells (2000 cells per well) are incubated in the 96-well plate in triplicate and then added to each well at various time points at the final concentration of 10%, and incubation is continued at 37° C. After 60 minutes, the absorbance of the sample is measured at the wavelength of 450 nm. Data is analyzed using GraphPad Prism software.

[2] = system: PBX1 promoter region; experiment: BG4 chromatin immunoprecipitation (ChIP) followed by qRT-PCR in A375 cells; format: cell-based, human
Experimental: FIGS. 2A-2G are features formed by dG1 and rG1 in vitro and in cells. In (FIG. 2A), Left: CD spectra of WT and Mut dG1, and Right: CD spectra of WT and Mut rG1. CD is circular dichroism. In (FIG. 2B), Left: gel mobility assay of WT and Mut dG1, and Right: gel mobility assay of WT and Mut rG1. In (FIG. 2C), under specified conditions, fluorescence-on assay of NMM in absence of presence of dG1 or rG1, and their G/A mutant. In (FIG. 2D), the occupancy of BG4 in the PBX1 promoter region is measured in A375 cells by BG4 chromatin immunoprecipitation (ChIP), followed by qRT-PCR. In (FIG. 2E), RNA immunoprecipitation (RIP) detection is performed to show the association between BG4 and the PBX1 transcript in A375 cells, followed by qRT-PCR. In (FIG. 2F), the occupancy of BG4 in the PBX1 promoter region is measured, by the BG4 chip, in A375 cells treated with or without PDS and TMPyP4, followed by qRT-PCR. […] SEM represents the standard error of mean. *P< 0.05, **P< 0.01***P< 0.001.
In this embodiment, several methods are further employed to verify the formation of dG1 and rG1. First, circular dichroism (CD) is used to examine the molar ellipticity of dG1 and rG1 sequences (33 nt) and mutants thereof, and the mutants are designed to eliminate G4 formation. […] Both dG1 and rG1 are found to enhance the fluorescence of N N (FIG. 2C). […]

[3] = system: dG1; experiment: Thermal stability of PBX1 dG1 with G4-specific ligands; format: binding
[4] = system: PBX1; experiment: PBX1 mRNA and protein levels by qRT-PCR and western blot in B16-F10 cells; format: cell-based, mouse; conditions: for mRNA level of PBX1: qRT-PCR; for protein level of PBX1: western blot, normalized to GAPDH
Experimental: RNA extraction and quantitative RT-PCR detection: total RNA is extracted from cultured cells by using TRIzol (Invitrogen, USA), then is converted into cDNA by SuperScript III First-Strand Synthesis SuperMix (Invitrogen, USA). qRT-PCR detection is performed by using SYBR Green®Mix (Invitrogen, USA) in ABI 7500 (Invitrogen, USA). A relative expression quantity of RNA is calculated by using a comparative CT method.
Immunoblotting: for protein analysis of a whole-cell lysate, cells are lysed with RIPA (CWBIO, Beijing, China) buffer solution. For tumors, liquid nitrogen is first used to pulverize tissues. Then, the lysate is generated on ice with the RIPA (CWBIO, Beijing, China) buffer solution for 20 minutes, and then centrifuged at 4° C., 13000 rpm for 15 minutes. Protein-containing supernatant is transferred to the fresh microcentrifuge tube, and stored at −20° C. (short-term storage) for subsequent use. The protein is quantified by using the BIO-RAD DC protein assay. The total proteins are electrophoresed on SDS-polyacrylamide gels. Then, the proteins are transferred to polyvinylidene difluoride (PVDF) membrane. After incubation with the primary antibody overnight on the shaker at 4° C., the membrane is washed 6 times (5 minutes each time) with TBS-T (Invitrogen, USA). Then, blots are incubated with horseradish peroxidase (IRP)-conjugated secondary antibodies for 60 minutes at RT on the plate shaker. The membrane is cleaned by TBS-T (6×5 minutes). Detection on immunoreactive bands is performed by using SuperSignalmWest Pico chemiluminescence substrate kit (Thermo Fisher Scientific, USA) and Western blotting detection system (BioRad, USA). GAPDH is used as the loading control for western blotting. The intensity levels of the bands are normalized to GAPDH.

[5] = system: PBX1 dG1; experiment: PBX1 dual luciferase reporter assay in HEK293T, A375 and B16-F10 cells; format: cell-based
Experimental: Dual luciferase reporter assay: for the PBX1 luciferase reporter gene assay, PBX1 luciferase reporter gene plasmid and pRL-TK plasmid are co-transfected into HEK293T, A375 and B16-F10 cells in the 96-well plate by Lipofectamine 2000 (Invitrogen, USA). 48 hours after transfection, cells are collected and analyzed using the Dual-Luciferase® Reporter Assay System (Promega, USA). The firefly activity is normalized to the activity of Renilla luciferase.
Given that G4s in the promoter and transcript are involved in the regulation of transcription and translation related processes, it is speculated that dG1 in the PBX1 promoter may regulate the transcription of PBX1, and rG1 in 5′UTR of the PBX1 transcript may regulate the transcription of PBX1. In addition, the luciferase reporter assay is first performed. The dG1 promoter sequence (designated as dG1-wt) and mutated dG1 promoter sequence (designated as dG1-mut) of PBX1 are cloned into pGL3 luciferase reporter vector. […] In addition, this embodiment further constructs an enhanced green fluorescent protein (EGFP) reporter gene system, to study the effect of rG1 on translation. The rG1 transcript sequence (designated as rG1-wt) and mutant rG1 transcript sequence (designated as rG1-mut) of PBX1 are fused to 5′UTR of EGFP, and the reporter gene vector is transfected into HEK293T cells. By confocal fluorescence experiments, the EGFP fluorescence intensity of rG1-WT is less than that of rG1-MUT, and PDS or TMPyP4 decreases the fluorescence intensity of rG1-WT in HEK293T cells (FIG. 3B). Finally, this embodiment studies the potential effect of PBX1 G4s on PBX1 expression of A375 and B16-F10 cells.

[6] = system: A375 cells; experiment: Cell proliferation assay (CCK-8), A375; format: cell-based, human; conditions: dose-dependent manner
Experimental: as §1

Structure (SMILES): NCCOc1cc(C(=O)Nc2cc(OCCN)c3ccccc3n2)nc(C(=O)Nc2cc(OCCN)c3ccccc3n2)c1 [PDS, Pyridostatin]
- cell viability (activity) measured by CCK8 [1]: reduce; also recorded: remarkably reduces
- pull-down of the PBX1 promoter by BG4 [2]: enhance
- thermal stability of dG1 [3]: remarkably enhance
- mRNA level of PBX1 [4]: inhibit; also recorded: remarkably reduces
- protein level of PBX1 [4]: inhibit; also recorded: remarkably reduces
- luciferase activity of dG1-mut transfected cells [5]: does not affect
- luciferase activity of dG1-wt transfected cells [5]: remarkably inhibits
- cell viability (activity) measured by CCK8 [6]: reduce; also recorded: remarkably reduces

Structure (SMILES): C[n+]1ccc(-c2c3nc(c(-c4cc[n+](C)cc4)c4ccc([nH]4)c(-c4cc[n+](C)cc4)c4ccc([nH]4)c(-c4cc[n+](C)cc4)c4nc2C=C4)C=C3)cc1 [TMPyP4]
- cell viability (activity) measured by CCK8 [1]: reduce; also recorded: remarkably reduces
- pull-down of the PBX1 promoter by BG4 [2]: enhance
- thermal stability of dG1 [3]: remarkably enhance
- mRNA level of PBX1 [4]: inhibit; also recorded: remarkably reduces
- protein level of PBX1 [4]: inhibit; also recorded: remarkably reduces
- luciferase activity of dG1-mut transfected cells [5]: does not affect
- luciferase activity of dG1-wt transfected cells [5]: remarkably inhibits
- cell viability (activity) measured by CCK8 [6]: reduce; also recorded: remarkably reduces
